Assay results as given in paper PMC7385619, “A triple action CDK4/6-PI3K-BET inhibitor with augmented cancer cell cytotoxicity” (Cell Discovery, 2020).
Where two headings read alike, the source gives them in different places.

Key:
Experiment in all cases: KINOMEscan assay (Eurofins DiscoverX)
Type in all cases: binding
kinome (kinase panel) [1] = target: T1, kinome (kinase panel) (Homo sapiens, UniProt Q16288); settings: TRKC (NTRK3); 1000 nM; read-out: Percent Control
T1 construct: purchased Eurofins DiscoverX

kinome (kinase panel) [2] = target: T2, kinome (kinase panel) (Homo sapiens, UniProt P36888, D835V); settings: […]; 1000 nM; read-out: Percent Control
T2 construct: purchased Eurofins DiscoverX

kinome (kinase panel) [3] = target: T3, kinome (kinase panel) (Homo sapiens, UniProt Q9UM73, C1156Y); settings: […]; 1000 nM; read-out: Percent Control
T3 construct: purchased Eurofins DiscoverX

kinome (kinase panel) [4] = target: T4, kinome (kinase panel) (Homo sapiens, UniProt P29597); settings: 1000 nM, read-out: Percent Control
T4 construct: purchased Eurofins DiscoverX

kinome (kinase panel) [5] = target: T5, kinome (kinase panel) (Homo sapiens, UniProt Q8IWQ3); settings: BRSK2; 1000 nM; read-out: Percent Control
T5 construct: purchased Eurofins DiscoverX

kinome (kinase panel) [6] = target: T6, kinome (kinase panel) (Homo sapiens, UniProt P29317); settings: EPHA2; 1000 nM; read-out: Percent Control
T6 construct: purchased Eurofins DiscoverX

kinome (kinase panel) [7] = target: T7, kinome (kinase panel) (Homo sapiens, UniProt P49841); settings: GSK3B; 1000 nM; read-out: Percent Control
T7 construct: purchased Eurofins DiscoverX

kinome (kinase panel) [8] = target: T8, kinome (kinase panel) (Homo sapiens, UniProt Q8TDC3); settings: BRSK1; 1000 nM; read-out: Percent Control
T8 construct: purchased Eurofins DiscoverX

kinome (kinase panel) [9] = target: T9, kinome (kinase panel) (Homo sapiens, UniProt Q9P0L2); settings: MARK1; 1000 nM; read-out: Percent Control
T9 construct: purchased Eurofins DiscoverX

kinome (kinase panel) [10] = target: T10, kinome (kinase panel) (Homo sapiens, UniProt O15264); settings: p38-delta (Entrez MAPK13); 1000 nM; read-out: Percent Control
T10 construct: purchased Eurofins DiscoverX

kinome (kinase panel) [11] = target: T11, kinome (kinase panel) (Homo sapiens, UniProt Q92772); settings: CDKL2; 1000 nM; read-out: Percent Control
T11 construct: purchased Eurofins DiscoverX

kinome (kinase panel) [12] = target: T12, kinome (kinase panel) (Homo sapiens, UniProt Q9Y616); settings: IRAK3; 1000 nM; read-out: Percent Control
T12 construct: purchased Eurofins DiscoverX

kinome (kinase panel) [13] = target: T13, kinome (kinase panel) (Homo sapiens, UniProt P78356); settings: PIP5K2B (Entrez PIP4K2B); 1000 nM; read-out: Percent Control
T13 construct: purchased Eurofins DiscoverX

kinome (kinase panel) [14] = target: T14, kinome (kinase panel) (Homo sapiens, UniProt Q86Z02); settings: HIPK1; 1000 nM; read-out: Percent Control
T14 construct: purchased Eurofins DiscoverX

kinome (kinase panel) [15] = target: T15, kinome (kinase panel) (Homo sapiens, UniProt O14976); settings: GAK; 1000 nM; read-out: Percent Control
T15 construct: purchased Eurofins DiscoverX

kinome (kinase panel) [16] = target: T16, kinome (kinase panel) (Homo sapiens, UniProt Q13233); settings: MAP3K1; 1000 nM; read-out: Percent Control
T16 construct: purchased Eurofins DiscoverX

kinome (kinase panel) [17] = target: T17, kinome (kinase panel) (Homo sapiens, UniProt Q04771); settings: ACVR1; 1000 nM; read-out: Percent Control
T17 construct: purchased Eurofins DiscoverX

kinome (kinase panel) [18] = target: T18, kinome (kinase panel) (Homo sapiens, UniProt P00519, Q252H)
T18 construct: purchased Eurofins DiscoverX

kinome (kinase panel) [19] = target: T19, kinome (kinase panel) (Homo sapiens, UniProt P42336, E545A); settings: read-out: Percent Control
T19 construct: purchased Eurofins DiscoverX

kinome (kinase panel) [20] = target: T20, kinome (kinase panel) (Homo sapiens, UniProt Q12866); settings: MERTK; 1000 nM; read-out: Percent Control
T20 construct: purchased Eurofins DiscoverX

kinome (kinase panel) [21] = target: T21, kinome (kinase panel) (Homo sapiens, UniProt P49760); settings: CLK2; 1000 nM; read-out: Percent Control
T21 construct: purchased Eurofins DiscoverX

kinome (kinase panel) [22] = target: T22, kinome (kinase panel) (Homo sapiens, UniProt P42336, C420R); settings: read-out: Percent Control
T22 construct: purchased Eurofins DiscoverX

kinome (kinase panel) [23] = target: T23, kinome (kinase panel) (Homo sapiens, UniProt Q9HAZ1); settings: CLK4; 1000 nM; read-out: Percent Control
T23 construct: purchased Eurofins DiscoverX

kinome (kinase panel) [24] = target: T24, kinome (kinase panel) (Homo sapiens, UniProt P53779); settings: JNK3 (Entrez MAPK10); 1000 nM; read-out: Percent Control
T24 construct: purchased Eurofins DiscoverX

kinome (kinase panel) [25] = target: T25, kinome (kinase panel) (Homo sapiens, UniProt Q9NYL2); settings: ZAK; 1000 nM; read-out: Percent Control
T25 construct: purchased Eurofins DiscoverX

kinome (kinase panel) [26] = target: T26, kinome (kinase panel) (Homo sapiens, UniProt Q9P1W9); settings: PIM2; 1000 nM; read-out: Percent Control
T26 construct: purchased Eurofins DiscoverX

kinome (kinase panel) [27] = target: T27, kinome (kinase panel) (Homo sapiens, UniProt O75116); settings: ROCK2; 1000 nM; read-out: Percent Control
T27 construct: purchased Eurofins DiscoverX

kinome (kinase panel) [28] = target: T28, kinome (kinase panel) (Homo sapiens, UniProt O00444); settings: PLK4; 1000 nM; read-out: Percent Control
T28 construct: purchased Eurofins DiscoverX

kinome (kinase panel) [29] = target: T29, kinome (kinase panel) (Homo sapiens, UniProt P31152); settings: ERK4 (Entrez MAPK4); 1000 nM; read-out: Percent Control
T29 construct: purchased Eurofins DiscoverX

kinome (kinase panel) [30] = target: T30, kinome (kinase panel) (Homo sapiens, UniProt P00533); settings: EGFR; 1000 nM; read-out: Percent Control
T30 construct: purchased Eurofins DiscoverX

kinome (kinase panel) [31] = target: T31, kinome (kinase panel) (Homo sapiens, UniProt Q56UN5); settings: YSK4 (MAP3K19); 1000 nM; read-out: Percent Control
T31 construct: purchased Eurofins DiscoverX

kinome (kinase panel) [32] = target: T32, kinome (kinase panel) (Homo sapiens, UniProt Q8N568); settings: DCAMKL2 (Entrez DCLK2); 1000 nM; read-out: Percent Control
T32 construct: purchased Eurofins DiscoverX

kinome (kinase panel) [33] = target: T33, kinome (kinase panel) (Homo sapiens, UniProt P35968); settings: VEGFR2 (KDR); 1000 nM; read-out: Percent Control
T33 construct: purchased Eurofins DiscoverX

T4 sequence (P29597 whole entry): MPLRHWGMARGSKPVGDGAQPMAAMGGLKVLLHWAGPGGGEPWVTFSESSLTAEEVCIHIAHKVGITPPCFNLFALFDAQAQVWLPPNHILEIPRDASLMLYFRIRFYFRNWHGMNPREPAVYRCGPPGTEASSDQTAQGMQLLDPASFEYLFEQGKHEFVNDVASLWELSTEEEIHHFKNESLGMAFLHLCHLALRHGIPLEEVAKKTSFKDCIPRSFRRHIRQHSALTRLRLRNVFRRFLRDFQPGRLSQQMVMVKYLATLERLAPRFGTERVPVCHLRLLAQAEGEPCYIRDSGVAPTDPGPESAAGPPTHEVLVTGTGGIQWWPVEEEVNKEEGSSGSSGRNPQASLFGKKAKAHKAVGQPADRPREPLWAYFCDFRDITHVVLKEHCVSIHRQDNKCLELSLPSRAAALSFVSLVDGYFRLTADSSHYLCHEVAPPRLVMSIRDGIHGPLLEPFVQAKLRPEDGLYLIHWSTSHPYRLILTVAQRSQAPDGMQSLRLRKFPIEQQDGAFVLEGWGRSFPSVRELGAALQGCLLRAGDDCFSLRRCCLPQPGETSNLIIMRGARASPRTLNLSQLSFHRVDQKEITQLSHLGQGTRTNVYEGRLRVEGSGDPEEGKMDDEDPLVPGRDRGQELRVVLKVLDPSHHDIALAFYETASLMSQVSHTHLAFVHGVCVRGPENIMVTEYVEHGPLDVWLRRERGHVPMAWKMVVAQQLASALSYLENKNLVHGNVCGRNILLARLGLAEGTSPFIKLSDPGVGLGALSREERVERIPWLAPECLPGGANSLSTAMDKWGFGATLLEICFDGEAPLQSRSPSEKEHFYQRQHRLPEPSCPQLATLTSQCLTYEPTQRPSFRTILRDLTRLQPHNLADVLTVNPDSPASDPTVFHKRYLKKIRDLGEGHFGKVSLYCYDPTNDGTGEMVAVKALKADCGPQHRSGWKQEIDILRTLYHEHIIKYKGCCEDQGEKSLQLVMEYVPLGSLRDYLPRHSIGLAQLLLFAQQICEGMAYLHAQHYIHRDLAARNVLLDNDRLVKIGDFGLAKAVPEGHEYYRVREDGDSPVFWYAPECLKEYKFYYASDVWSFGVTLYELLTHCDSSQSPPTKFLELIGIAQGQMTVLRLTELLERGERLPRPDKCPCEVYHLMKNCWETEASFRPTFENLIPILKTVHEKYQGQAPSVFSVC
T14 sequence (Q86Z02 whole entry): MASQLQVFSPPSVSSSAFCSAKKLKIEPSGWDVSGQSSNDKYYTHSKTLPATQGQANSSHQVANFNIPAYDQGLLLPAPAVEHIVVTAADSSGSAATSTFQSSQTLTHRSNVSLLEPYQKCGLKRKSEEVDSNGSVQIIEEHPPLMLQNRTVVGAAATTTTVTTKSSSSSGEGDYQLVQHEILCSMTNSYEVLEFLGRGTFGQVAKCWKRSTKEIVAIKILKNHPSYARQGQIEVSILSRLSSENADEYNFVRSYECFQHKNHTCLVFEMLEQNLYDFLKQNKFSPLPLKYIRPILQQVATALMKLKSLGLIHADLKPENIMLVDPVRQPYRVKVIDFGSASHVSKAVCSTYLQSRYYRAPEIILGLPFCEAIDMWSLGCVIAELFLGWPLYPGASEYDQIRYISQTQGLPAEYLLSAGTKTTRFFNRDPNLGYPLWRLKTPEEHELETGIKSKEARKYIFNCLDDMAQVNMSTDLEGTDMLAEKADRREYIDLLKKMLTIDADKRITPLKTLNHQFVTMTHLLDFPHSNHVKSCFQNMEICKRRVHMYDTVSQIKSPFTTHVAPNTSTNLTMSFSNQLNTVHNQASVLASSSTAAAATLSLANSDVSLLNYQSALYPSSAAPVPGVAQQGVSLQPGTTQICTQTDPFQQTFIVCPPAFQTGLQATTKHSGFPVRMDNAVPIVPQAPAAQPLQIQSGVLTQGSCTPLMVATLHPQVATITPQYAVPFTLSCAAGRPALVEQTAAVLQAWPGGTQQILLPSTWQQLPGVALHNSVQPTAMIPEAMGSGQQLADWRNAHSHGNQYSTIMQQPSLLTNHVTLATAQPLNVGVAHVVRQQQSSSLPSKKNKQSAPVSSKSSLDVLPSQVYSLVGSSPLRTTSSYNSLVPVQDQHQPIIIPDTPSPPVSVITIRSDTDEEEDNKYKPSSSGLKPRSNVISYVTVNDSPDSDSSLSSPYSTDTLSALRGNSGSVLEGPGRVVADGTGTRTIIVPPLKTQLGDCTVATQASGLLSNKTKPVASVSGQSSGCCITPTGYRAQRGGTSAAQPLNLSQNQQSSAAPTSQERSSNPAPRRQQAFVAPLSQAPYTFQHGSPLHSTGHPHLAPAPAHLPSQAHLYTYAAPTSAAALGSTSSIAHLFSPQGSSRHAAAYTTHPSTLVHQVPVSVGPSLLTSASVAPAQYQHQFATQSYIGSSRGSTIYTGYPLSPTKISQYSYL
T10 sequence (O15264 whole entry): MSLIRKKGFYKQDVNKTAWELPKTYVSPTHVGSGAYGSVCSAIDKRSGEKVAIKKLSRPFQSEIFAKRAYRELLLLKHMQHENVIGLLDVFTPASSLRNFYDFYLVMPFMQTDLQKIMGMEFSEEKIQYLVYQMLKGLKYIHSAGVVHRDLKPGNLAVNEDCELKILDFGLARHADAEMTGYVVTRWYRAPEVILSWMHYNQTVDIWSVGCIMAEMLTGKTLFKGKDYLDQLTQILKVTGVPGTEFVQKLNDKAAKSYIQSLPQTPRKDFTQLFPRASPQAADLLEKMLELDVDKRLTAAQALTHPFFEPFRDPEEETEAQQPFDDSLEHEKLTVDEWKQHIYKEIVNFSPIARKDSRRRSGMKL
T26 sequence (Q9P1W9 whole entry): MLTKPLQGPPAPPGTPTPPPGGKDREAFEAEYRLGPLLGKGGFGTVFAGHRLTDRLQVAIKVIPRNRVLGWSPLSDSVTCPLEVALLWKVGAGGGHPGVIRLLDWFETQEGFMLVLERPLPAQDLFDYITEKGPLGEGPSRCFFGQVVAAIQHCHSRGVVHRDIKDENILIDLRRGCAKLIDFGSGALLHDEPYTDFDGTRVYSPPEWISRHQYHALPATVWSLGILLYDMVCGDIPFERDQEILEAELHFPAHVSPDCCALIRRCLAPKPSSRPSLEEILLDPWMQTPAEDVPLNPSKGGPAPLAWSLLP
T30 sequence (P00533 25-1210): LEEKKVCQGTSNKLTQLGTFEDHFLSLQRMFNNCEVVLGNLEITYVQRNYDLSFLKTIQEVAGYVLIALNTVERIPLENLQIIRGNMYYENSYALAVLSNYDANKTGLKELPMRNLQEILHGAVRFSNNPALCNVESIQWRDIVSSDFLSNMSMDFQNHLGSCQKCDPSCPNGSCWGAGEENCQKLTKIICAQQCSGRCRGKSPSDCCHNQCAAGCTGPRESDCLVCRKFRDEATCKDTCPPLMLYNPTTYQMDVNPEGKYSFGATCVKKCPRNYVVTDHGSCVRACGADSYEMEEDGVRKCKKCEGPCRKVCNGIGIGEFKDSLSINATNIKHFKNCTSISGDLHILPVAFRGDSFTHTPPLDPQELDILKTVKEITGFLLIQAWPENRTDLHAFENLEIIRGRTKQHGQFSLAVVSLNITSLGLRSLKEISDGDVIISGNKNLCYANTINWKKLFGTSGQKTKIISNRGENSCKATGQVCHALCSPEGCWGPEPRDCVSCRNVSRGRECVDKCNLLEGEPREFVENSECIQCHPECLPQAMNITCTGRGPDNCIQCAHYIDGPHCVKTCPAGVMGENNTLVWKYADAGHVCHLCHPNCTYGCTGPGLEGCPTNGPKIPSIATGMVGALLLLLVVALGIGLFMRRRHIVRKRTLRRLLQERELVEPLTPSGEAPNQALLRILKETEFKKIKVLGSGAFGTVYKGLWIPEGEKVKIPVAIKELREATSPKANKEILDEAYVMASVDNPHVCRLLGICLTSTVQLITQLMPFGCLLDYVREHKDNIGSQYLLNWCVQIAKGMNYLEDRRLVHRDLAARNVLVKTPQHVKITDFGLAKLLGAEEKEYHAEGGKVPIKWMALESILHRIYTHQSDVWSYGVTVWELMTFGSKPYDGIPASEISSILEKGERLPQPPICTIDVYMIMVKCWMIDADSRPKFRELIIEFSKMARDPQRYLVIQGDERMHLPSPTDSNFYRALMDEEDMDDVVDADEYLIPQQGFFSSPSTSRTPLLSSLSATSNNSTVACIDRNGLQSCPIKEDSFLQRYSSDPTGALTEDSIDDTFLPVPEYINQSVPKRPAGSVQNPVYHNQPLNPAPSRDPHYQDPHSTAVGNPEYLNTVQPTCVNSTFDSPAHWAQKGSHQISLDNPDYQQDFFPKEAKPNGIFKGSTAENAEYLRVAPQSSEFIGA
T23 sequence (Q9HAZ1 whole entry): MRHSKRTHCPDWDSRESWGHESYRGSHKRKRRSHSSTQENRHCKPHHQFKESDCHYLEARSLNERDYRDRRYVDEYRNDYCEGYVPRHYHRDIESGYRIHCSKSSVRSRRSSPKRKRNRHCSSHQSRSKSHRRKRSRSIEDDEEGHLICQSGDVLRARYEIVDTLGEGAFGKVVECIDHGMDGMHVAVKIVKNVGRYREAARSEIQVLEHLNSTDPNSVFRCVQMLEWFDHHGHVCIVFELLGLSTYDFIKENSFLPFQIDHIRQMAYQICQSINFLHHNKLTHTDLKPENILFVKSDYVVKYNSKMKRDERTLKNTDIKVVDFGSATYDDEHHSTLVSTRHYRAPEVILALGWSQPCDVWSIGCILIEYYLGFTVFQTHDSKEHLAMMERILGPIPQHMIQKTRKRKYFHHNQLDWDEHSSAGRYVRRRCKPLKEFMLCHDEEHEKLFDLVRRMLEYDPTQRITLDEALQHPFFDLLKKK

Compound: CN(C)C(=O)c1cc2cnc(Nc3ccc(-c4csc5c(=O)cc(N6CCOCC6)oc45)cc3)nc2n1C1CCCC1 [SRX3177]
- remaining binding at 1 µM (kinome (kinase panel) [1]): 37%
- remaining binding at 1 µM (kinome (kinase panel) [2]): 2.1%
- remaining binding at 1 µM (kinome (kinase panel) [3]): 77%
- remaining binding at 1 µM (kinome (kinase panel) [4]; TYK2(JH1domain-catalytic)): 69%
- remaining binding at 1 µM (kinome (kinase panel) [4]; TYK2(JH2domain-pseudokinase)): 9.7%
- remaining binding at 1 µM (kinome (kinase panel) [5]): 100%
- remaining binding at 1 µM (kinome (kinase panel) [6]): 76%
- remaining binding at 1 µM (kinome (kinase panel) [7]): 75%
- remaining binding at 1 µM (kinome (kinase panel) [8]): 100%
- remaining binding at 1 µM (kinome (kinase panel) [9]): 100%
- remaining binding at 1 µM (kinome (kinase panel) [10]): 97%
- remaining binding at 1 µM (kinome (kinase panel) [11]): 97%
- remaining binding at 1 µM (kinome (kinase panel) [12]): 83%
- remaining binding at 1 µM (kinome (kinase panel) [13]): 48%
- remaining binding at 1 µM (kinome (kinase panel) [14]): 86%
- remaining binding at 1 µM (kinome (kinase panel) [15]): 56%
- remaining binding at 1 µM (kinome (kinase panel) [16]): 40%
- remaining binding at 1 µM (kinome (kinase panel) [17]): 84%
- Percent Control (kinome (kinase panel) [18]): 58
- remaining binding at 1 µM (kinome (kinase panel) [18]; read-out: Percent Control): 72%
- remaining binding at 1 µM (kinome (kinase panel) [19]): 82%
- remaining binding at 1 µM (kinome (kinase panel) [20]): 86%
- remaining binding at 1 µM (kinome (kinase panel) [21]): 92%
- remaining binding at 1 µM (kinome (kinase panel) [22]): 81%
- remaining binding at 1 µM (kinome (kinase panel) [23]): 100%
- remaining binding at 1 µM (kinome (kinase panel) [24]): 55%
- remaining binding at 1 µM (kinome (kinase panel) [25]): 80%
- remaining binding at 1 µM (kinome (kinase panel) [26]): 100%
- remaining binding at 1 µM (kinome (kinase panel) [27]): 46%
- remaining binding at 1 µM (kinome (kinase panel) [28]): 60%
- remaining binding at 1 µM (kinome (kinase panel) [29]): 96%
- remaining binding at 1 µM (kinome (kinase panel) [30]): 100%
- remaining binding at 1 µM (kinome (kinase panel) [31]): 65%
- remaining binding at 1 µM (kinome (kinase panel) [32]): 90%
- remaining binding at 1 µM (kinome (kinase panel) [33]): 87%
